# Data: patent US8497276B2, “Substituted indolo-piperidine compounds” (ArQule, Inc., priority 2009, dated 2013)
# Legend:
# Tec kinase = target: T1, Tec kinase (Homo sapiens, UniProt P42680); assay: Tec Kinase Activity Assay; format: biochemical; settings: 75 μM ATP, Pyk-2 substrate; compound concentration not given
# T1 sequence (P42680 1-631): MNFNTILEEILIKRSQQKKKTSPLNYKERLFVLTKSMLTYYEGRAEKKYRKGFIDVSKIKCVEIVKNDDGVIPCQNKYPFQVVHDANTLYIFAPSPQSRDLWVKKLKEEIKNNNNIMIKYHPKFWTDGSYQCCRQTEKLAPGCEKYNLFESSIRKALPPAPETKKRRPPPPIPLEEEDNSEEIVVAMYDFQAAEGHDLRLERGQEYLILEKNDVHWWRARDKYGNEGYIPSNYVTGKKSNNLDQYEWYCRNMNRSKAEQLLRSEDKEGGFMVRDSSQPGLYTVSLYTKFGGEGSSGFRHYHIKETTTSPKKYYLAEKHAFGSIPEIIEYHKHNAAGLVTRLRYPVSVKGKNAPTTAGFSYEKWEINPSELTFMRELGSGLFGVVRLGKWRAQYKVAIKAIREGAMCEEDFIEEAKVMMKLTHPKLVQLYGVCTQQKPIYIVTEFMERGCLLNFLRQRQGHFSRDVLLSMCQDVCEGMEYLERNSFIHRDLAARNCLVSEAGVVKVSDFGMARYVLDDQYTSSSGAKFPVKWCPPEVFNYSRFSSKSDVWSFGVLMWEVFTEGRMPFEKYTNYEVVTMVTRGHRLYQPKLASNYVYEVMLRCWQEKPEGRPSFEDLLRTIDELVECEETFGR
# Outline: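 TEC enzyme was preincubated 30 min with compound in buffer containing 75 μM ATP, 10 mM MgCl2, 2 mM DTT and 50 mM Tris-HCl. Pyk-2 substrate was then added for 2 h at room temperature. Phosphorylated product was captured on streptavidin plates and detected by anti-phosphotyrosine ELISA with an alkaline phosphatase/Attophos fluorescent read-out.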
# DLD-1 = assay: MTS Assay (cell growth inhibition), DLD-1; format: cell-based; settings: DLD-1 cells, 72 hours with test compound; concentration not given
# Outline: (§1)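 First, seed 3000 cells per well in low-serum (1% FBS) DMEM and culture 18 h. Next, add compounds prepared at 300× in DMSO and diluted 1:40 in DMEM; incubate 72 h. Finally, add MTS/PMS for 4 h and measure absorbance at 492 nm.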
# Kato III = assay: MTS Assay (cell growth inhibition), Kato III; format: cell-based; settings: Kato III cells, 72 hours with test compound; concentration not given
# Outline: as §1
# MDA-MB 231 = assay: MTS Assay (cell growth inhibition), MDA-MB 231; format: cell-based; settings: MDA-MB 231 cells, 72 hours with test compound; concentration not given
# Outline: as §1
# NCI-H1299 = assay: MTS Assay (cell growth inhibition), NCI-H1299; format: cell-based; settings: NCI-H1299 cells, 72 hours with test compound; concentration not given
# Outline: as §1
# PACA-2 = assay: MTS Assay (cell growth inhibition), PACA-2; format: cell-based; settings: PACA-2 cells, 72 hours with test compound; concentration not given
# Outline: as §1
# PC-3 = assay: MTS Assay (cell growth inhibition), PC-3; format: cell-based; settings: PC-3 cells, 72 hours with test compound; concentration not given
# Outline: as §1
smiles,measurement,setting,value
"COc1ccc(C2c3[nH]c4ccccc4c3CCN2c2ncnc3[nH]ncc23)cc1 (stereo not drawn) [Compound 31, 1-(4-methoxyphenyl)-2-(1H-pyrazolo[3,4-d]pyrimidin-4-yl)-2,3,4,9-tetrahydro-1H-beta-carboline]",Biochemical IC50 (% inhibition) Tec,Tec kinase,B (B = 50-79% inhibition)
same,MTS cell kill data (% inhibition) DLD-1,DLD-1,B (B = 50-79% inhibition)
same,MTS cell kill data (% inhibition) Kato III,Kato III,B (B = 50-79% inhibition)
same,MTS cell kill data (% inhibition) MDA-MB 231,MDA-MB 231,B (B = 50-79% inhibition)
same,MTS cell kill data (% inhibition) NCI-H1299,NCI-H1299,B (B = 50-79% inhibition)
same,MTS cell kill data (% inhibition) PACA-2,PACA-2,B (B = 50-79% inhibition)
same,MTS cell kill data (% inhibition) PC-3,PC-3,C (C = <50% inhibition)
